# Values joined by “and” are separate entries in the source; they are usually repeats but may differ in a detail not shown here. Equal values may be shown once. “Also recorded” adds a separate entry of the source.
# Columns and labels:
# [1] = test system: Han Wistar rats; experiment: Multiple-dose tolerance study, oral gavage 3 times a day for 7 days; format: in vivo, rat
# Procedure: The following parameters and end points were evaluated in the multiple-dose phase of this study: clinical signs, body weights, body weight changes, food consumption, and gross necropsy findings.
# A total of 18 male and 24 female Han Wistar rats were received from Charles River Laboratories, Raleigh, N.C. The animals were examined and weighed on the day following receipt. The rising-dose phase animals were 8 weeks old and weighed between 176 g and 255 g at initiation of dosing and the multiple-dose phase animals were 8 weeks old and weighed between 172 g and 259 g at initiation of dosing.
# For the multiple-dose study, the test and control articles were administered to the appropriate animals 3 times a day by oral gavage from Days 1 to 7. The doses were administered 8 hours±30 minutes apart. The dose volume for each animal was based on the most recent body weight measurement. The doses were given using a syringe with attached gavage cannula. The first day of dosing was designated as Study Day 1.
# Cage side observations were performed once daily, beginning during Week −1 and throughout the dosing phase. During the dosing period, these observations were performed 1 to 3 hours post the first daily dose.
# The animals were removed from the cage and a detailed clinical observation was performed on the day of randomization and Days 1 and 8. Each animal was weighed on the day of randomization (Day −4) and Days 1 to 8. Food consumption was quantitatively measured for each animal weekly, starting Day −4, throughout the dosing phase.
# Multiple-dose study animals were subjected to a complete necropsy examination, which included evaluation of the carcass and musculoskeletal system; all external surfaces and orifices; cranial cavity and external surfaces of the brain; and thoracic, abdominal, and pelvic cavities with their associated organs and tissues. Necropsy examinations were conducted under the supervision of a board-certified veterinary pathologist.
# For the multiple-dose study, numerical data collected on scheduled occasions for the listed variables were analyzed as indicated according to sex and occasion. Descriptive statistics number, mean and standard deviation (or % CV or SE when deemed appropriate) were reported whenever possible. Inferential statistics were performed according to the matrix below when possible, but excluded semi-quantitative data, and any group with less than 3 observations.
# Levene's test was used to assess the homogeneity of group variances parametric assumption at the 5% significance level. Datasets with at least 3 groups were compared using an overall one-way ANOVA F-test or Kruskal-Wallis test (if parametric assumptions were not met) at the 5% significance level. The above pairwise comparisons were conducted using a two-sided Dunnett's or Dunn's test, respectively, if the overall test was significant. Datasets with 2 groups were compared using a two-sided t-test or Wilcoxon Rank-Sum test, respectively. All significant pairwise comparisons were reported at the 0.1%, 1%, and 5% significance levels.
# [2] = test system: dogs with suspected chronic pancreatitis; experiment: Serum TGF-β1 before and after treatment, clinical trial; format: in vivo, dog; conditions: for Change in serum TGF-β1, pre- vs post-treatment (paired t-test): methanesulfonate
# Procedure: Treatment effects on overall health status, quality of life, and clinical signs were also evaluated with serum biochemistry profiles, complete blood counts, and owner questionnaires.
# Dogs were identified by screening current submissions to the Gastrointestinal Laboratory at Texas A&M indicative of pancreatitis (canine pancreas-specific lipase≧400 μg/L) using an immunoassay for measurement of canine pancreas-specific lipase in canine serum known as the spec CPL® Test (IDEXX, Laboratories). A number of potential study participants were directly referred to the investigator by veterinarians, based on positive pet-side SNAP cPL® Test (IDEXX Laboratories, Westbrook, Me., USA) results and concomitant clinical signs. After ascertaining individual suitability of a patient with the referring veterinarian, serum canine pancreas-specific lipase concentration, serum biochemistry profile, and complete blood count were evaluated or re-evaluated 12±4 days after collection of the initial sample submission to the Gastrointestinal Laboratory. Based on the assumption that consecutive canine pancreas-specific lipase elevations indicate chronic pancreatitis, enrollment was offered for patients with canine pancreas-specific lipase concentrations≧400 μg/L, serum triglyceride concentrations below 500 mg/dL, and no indication of hepatic, renal, or other organ disease. […] Owner consent was required prior to phlebotomy and for enrollment into the trial.
# Twelve enrolled dogs received camostat capsules at a dosage of 4 mg/kg q 8 hrs, for a total dose of 12 mg/kg q 24 hrs. […] Individual patients were medicated for between 21 to 31 days.
# Blood samples were collected before beginning the treatment and after completion of the treatment period. Complete blood count (red blood cell count, hematocrit, mean corpuscular volume, mean corpuscular hemoglobin, mean corpuscular hemoglobin concentration, differential and absolute white blood cell count, red blood cell count, hemoglobin, platelet estimate, red blood cell morphology, white blood cell morphology, and hemoparasites) was evaluated at the Texas Veterinary Medical Diagnostic Laboratory (TVMDL). A serum chemistry profile with electrolytes (glucose, blood urea nitrogen, creatinine, calcium, phosphorus, albumin, total protein, total bilirubin, alkaline phosphatase, alanine amino transferase, aspartate amino transferase, γ-glutamyl transferase, cholesterol, triglycerides, globuline, sodium, potassium, and chloride) was performed on a SIRRUS analyzer (Stanbio, Boerne, Tex., USA). Serum concentrations of cPL (RI: 0-200 μg/L; Spec cPL® IDEXX Laboratories, Westbrook, Me., USA), cTLI (RI: 5.7-45.2 μg/L; Canine TLI DOUBLE ANTIBODY®, Siemens Healthcare Diagnostics, Los Angeles, Calif., USA), cobalamin (RI: 251-908 ng/L), and folate (RI: 7.7-24.4 μg/L; Immulite 2000®, Siemens Healthcare Diagnostics Inc., Deerfield, Ill., USA), canine specific C-reactive protein (RI: 0-7.6 mg/L, Tridelta Development Limited, Maynooth, CO. Kildare, Ireland), S100A12 (RI: 56-331 μg/L, Gastrointestinal Laboratory in-house radioimmunoassay), and TGF-β1 (RI: 38-72 ng/mL; Quantikine® ELISA, R&D Systems, Minneapolis, […]., USA) were performed at the Gastrointestinal Lab at Texas A&M University.
# Pre-treatment and post-treatment results for all diagnostic tests were statistically analyzed using Prism 6 (GraphPad Software, La Jolla, Calif., USA). The D'Agostino-Pearson omnibus test was used to evaluate all datasets for Gaussian distribution. Groups were compared using a paired t-test for normally-distributed data sets and a Wilcoxon matched-pairs test when Gaussian distribution could not be assumed. Mean values and standard deviation are reported for data sets with Gaussian distribution. Median and minimum/maximum values are reported for data sets where Gaussian distribution could not be assumed. The significance threshold was set at p=0.05.
# [3] = test system: rats; conditions: cited from earlier work
structure (smiles),measurement,setting,value
"CN(C)C(=O)COC(=O)Cc1ccc(OC(=O)c2ccc(NC(=N)N)cc2)cc1 [Camostat Mesilate, N,N-dimethylcarbamoylmethyl-4-(4-guanidinobenzoyloxy)phenylacetate methanesulfonate]",Clinical observations,"[1]; 1300 mg/kg/day, Day 8, methanesulfonate",Most of the 1300 mg/kg/day animals were noted to be thin and 3/3 males and 2/3 females were noted to be thin
same,Necropsy observation not considered test article related,"[1]; 1300 mg/kg/day, male",small seminal vesicle was noted in one 1300 mg/kg/day male
same,Overall conclusion of multiple dosing,[1]; 3 times per day for 7 days,body weight loss and decreased food consumption
same,Gross necropsy findings,"[1]; 100, 550, 1300 mg/kg/day",no toxicologically meaningful gross necropsy findings
same,Survival,"[1]; 100, 550, 1300 mg/kg/day, 3 times a day, 7 days, euthanasia Day 8, methanesulfonate",All animals survived to scheduled euthanasia; also recorded: No animals died
same,Mean body weights compared to controls,[1]; 100 or 550 mg/kg/day,no statistically significant or toxicologically meaningful differences
same,Clinical observations,"[1]; 100 or 550 mg/kg/day, 7 days",no clinical observations noted
same,"Mean body weight, deviation from controls","[1]; 100 or 550 mg/kg/day, Day 8",≤ 4.4%
same,"Mean food consumption, statistical comparison with controls","[1]; Days 1 to 7, all dose groups",no statistically significant differences
same,Mean body weight lower than controls,"[1]; females, Day 8, 1300 mg/kg/day, statistically decreased Days 5 to 8",19%
same,Body weight change Days 1 to 8,"[1]; females, 1300 mg/kg/day",−13%
same,Mean body weight lower than controls,"[1]; males, Day 8, 1300 mg/kg/day, statistically decreased Days 4 to 8",25%
same,Body weight change Days 1 to 8,"[1]; males, 1300 mg/kg/day",−15%
same,High-dose level chosen from the tolerance study,"[1]; rats, oral, 3 times per day",1300 mg/kg/day
same,"Change in serum TGF-β1, pre- vs post-treatment (paired t-test)","[2]; 4 mg/kg q 8 hrs, n=12",no significant difference; also recorded: did not change significantly
same,Serum TGF-β1 concentration post-treatment (mean),"[2]; 4 mg/kg q 8 hrs, n=12, pre-treatment mean 45, post SD ±8, p=0.3679",43 ng/mL
same,"Change in serum TGF-β1, pre- vs post-treatment (paired t-test)","[2]; 8 mg/kg q 8 hrs, n=17",no significant difference; also recorded: did not change significantly
same,Serum TGF-β1 concentration post-treatment (mean),"[2]; 8 mg/kg q 8 hrs, n=17, pre-treatment mean 47, post SD ±12, p=0.1686",40 ng/mL
same,Serum TGF-β1 concentration post-treatment (mean),"[2]; all treated dogs combined, n=29, pre-treatment mean 46, post SD ±11, p=0.0986",41 ng/mL
same,"Change in serum TGF-β1, pre- vs post-treatment (paired t-test)","[2]; all treated dogs combined, n=29, trend towards a decrease",no statistically significant difference; also recorded: did not lead to any significant changes
same,Clinical signs up to 30 minutes postdose,[3]; 1300 mg/kg/day,preening and a slight decrease in locomotor activity
same,Body weight gain,[3]; 550 and 1300 mg/kg/day,suppressed
same,Clinical signs immediately after dosing,"[3]; all treated groups: 100, 235, 550, 1300 mg/kg/day, 90 and 180 days",hypersalivation

# — US20170095440A1, “METHOD OF TREATING CANINE PANCREATITIS” (CK9, LLC, priority 2014, published 2017)
